According to patent US4343943A, “Cephalosporin analogs” (Kyowa Hakko Kogyo Co., Ltd., priority 1978, dated 1982):
≈ marks a conversion by molar mass, not a printed value. Where two headings read alike, the source gives them in different places.

Key:
Type in all cases: cell-based
Escherichia coli Juhl = assay: Antibacterial activity, Heart Infusion Agar Dilution Method (pH 7.2)
Experimental: (§1) Antibacterial activities of the compounds obtained in Examples 6 and 8 are measured according to the Heart Infusion Agar Dilution Method (pH 7.2). Cefazolin is used as a control.

Serratia marcescens T-55 = assay: as above; conditions: T55
Experimental: as §1

[1] = tested on: Klebsiella pneumoniae 8045; assay: as above
Experimental: as §1

Proteus vulgaris 6897 = assay: as above
Experimental: as §1

Escherichia coli NIHJC-2 = assay: as above
Experimental: as §1

Proteus morganii KY4298 = assay: as above; conditions: Morganella morganii
Experimental: as §1

Serratia marcescens T-26 = assay: as above; conditions: T26
Experimental: as §1

[2] = tested on: Staphylococcus epidermidis; assay: as above
Experimental: as §1

[3] = tested on: Pseudomonas aeruginosa 145; assay: as above
Experimental: as §1

[4] = tested on: Staphylococcus aureus 209-P; assay: as above
Experimental: as §1

[5] = tested on: Staphylococcus aureus Smith; assay: as above
Experimental: as §1

Pseudomonas putida F264 = assay: as above
Experimental: as §1

Proteus mirabilis 1287 = assay: as above
Experimental: as §1

[6] = tested on: Klebsiella pneumoniae Y-60; assay: as above; conditions: Y60
Experimental: as §1

Proteus rettgeri KY4289 = assay: as above; conditions: Providencia rettgeri
Experimental: as §1

[7] = tested on: Pseudomonas aeruginosa No. 1; assay: as above
Experimental: as §1

[8] = tested on: Escherichia coli GN 2411-5; assay: as above; conditions: GN2411
Experimental: as §1

[9] = tested on: Salmonella typhosa KY4278; assay: Antibacterial activity, Heart Infusion Agar Dilution Method (pH 7.0); conditions: Salmonella enterica
Experimental: (§2) Antibacterial activities of the product obtained in this Example are measured according to the Heart Infusion Agar Dilution Method (pH 7.0).

Shigella sonnei KY4281 = assay: as above
Experimental: as §2

Bacillus subtilis KY4273 = assay: as above
Experimental: as §2

Escherichia coli KY4271 = assay: as above
Experimental: as §2

Proteus vulgaris KY4277 = assay: as above
Experimental: as §2

Vibrio percolans KY4174 = assay: as above; conditions: Comamonas terrigena
Experimental: as §2

[10] = tested on: Klebsiella pneumonia KY4275; assay: as above; conditions: Klebsiella pneumoniae
Experimental: as §2

Erwinia aroides KY3241 = assay: as above
Experimental: as §2

[11] = tested on: Staphylococcus aureus KY4279; assay: as above
Experimental: as §2

[12] = Escherichia coli Juhl, agar dilution, read-out: MIC
[13] = NIHJC2, Escherichia coli NIHJC-2, agar dilution, pH 7.2, read-out: MIC

Row | SMILES | MIC (Serratia marcescens T-55) | MIC [1] | MIC (Proteus vulgaris 6897) | MIC (Proteus morganii KY4298) | MIC (Serratia marcescens T-26) | MIC [2] | MIC [3] | MIC [4] | MIC [5] | MIC (Pseudomonas putida F264) | MIC (Proteus mirabilis 1287) | MIC [6] | MIC (Proteus rettgeri KY4289) | MIC (Escherichia coli Juhl; [12]) | MIC (Escherichia coli NIHJC-2; [13]) | MIC [7] | MIC [8] | further results
1 | Cc1nnc(SCC2=C(C(=O)O)N3C(=O)[C@@H](NC(=O)Cn4cnnn4)[C@H]3SC2)s1 [Cefazolin, reference compound] | 50 mg/L (≈ 110 µM) | 0.78 mg/L (≈ 1.72 µM) | 12.5 mg/L (≈ 27.5 µM) | > 100 mg/L | > 100 mg/L | 0.78 mg/L (≈ 1.72 µM) | > 100 mg/L | < 0.05 mg/L | 0.4 mg/L (≈ 0.88 µM) | > 100 mg/L | 12.5 mg/L (≈ 27.5 µM) | 3.12 mg/L (≈ 6.86 µM) | 25 mg/L (≈ 55 µM) | – | – | – | – | MIC (Escherichia coli Juhl; Escherichia coli): 1.56 mg/L (≈ 3.43 µM); MIC (Escherichia coli NIHJC-2; Escherichia coli, NIHJC2, pH 7.2): 1.56 mg/L (≈ 3.43 µM)
2 | CO/N=C(/C(=O)N[C@@H]1C(=O)N2C(C(=O)O)=CC=C[C@H]12)c1csc(N)n1 (relative stereo) [Example 6, (±)-cis-7-[2-(2-amino-4-thiazolyl)-2-anti-methoxyiminoacetamido]-1-azabicyclo[4,2,0]oct-2,4-diene-8-on-2-carboxylic acid] | ≥ 50 mg/L | 50 mg/L (≈ 138 µM) | ≥ 50 mg/L | ≥ 50 mg/L | ≥ 50 mg/L | ≥ 50 mg/L | ≥ 50 mg/L | ≥ 50 mg/L | ≥ 50 mg/L | ≥ 50 mg/L | ≥ 50 mg/L | ≥ 50 mg/L | ≥ 50 mg/L | ≥ 50 mg/L | ≥ 50 mg/L | ≥ 50 mg/L | ≥ 50 mg/L | –
3 | CO/N=C(\C(=O)N[C@@H]1C(=O)N2C(C(=O)O)=CC=C[C@H]12)c1csc(N)n1 (relative stereo) [Example 8, (±)-cis-7-[2-(2-amino-4-thiazolyl)-2-syn-methoxyiminoacetamido]-1-azabicyclo[4,2,0]oct-2,4-diene-8-on-2-carboxylic acid] | 50 mg/L (≈ 138 µM) | 6.25 mg/L (≈ 17.2 µM) | 6.25 mg/L (≈ 17.2 µM) | 12.5 mg/L (≈ 34.4 µM) | ≥ 50 mg/L | ≥ 50 mg/L | ≥ 50 mg/L | ≥ 50 mg/L | ≥ 50 mg/L | 12.5 mg/L (≈ 34.4 µM) | 6.25 mg/L (≈ 17.2 µM) | ≥ 50 mg/L | 6.25 mg/L (≈ 17.2 µM) | 50 mg/L (≈ 138 µM) | 25 mg/L (≈ 68.8 µM) | ≥ 50 mg/L | 25 mg/L (≈ 68.8 µM) | –
4 | O=C(Cc1cccs1)NC1C(=O)N2C(C(=O)O)=CC=CC12 (stereo not drawn) [Example 10, (±)-cis-7-[2-(thiophene-2-yl)acetylamino]-1-azabicyclo[4,2,0]oct-2,4-diene-8-on-2-carboxylic acid] | – | – | – | – | – | – | – | – | – | – | – | – | – | – | – | – | – | MIC [9]: 13.9 mg/L (≈ 45.7 µM); MIC (Shigella sonnei KY4281): > 55.6 mg/L; MIC (Bacillus subtilis KY4273): 55.6 mg/L (≈ 183 µM); MIC (Escherichia coli KY4271): > 55.6 mg/L; MIC (Proteus vulgaris KY4277): 27.8 mg/L (≈ 91.3 µM); MIC (Vibrio percolans KY4174): 55.6 mg/L (≈ 183 µM); MIC [10]: 27.8 mg/L (≈ 91.3 µM); MIC (Erwinia aroides KY3241): 13.9 mg/L (≈ 45.7 µM); MIC [11]: 27.8 mg/L (≈ 91.3 µM)
